Measurements published in US20170198196A1, “METHODS FOR CONTROLLING SOURING IN ENGINEERED SYSTEMS” (The Regents of the University of California, priority 2014, published 2017).
Entries after “also recorded” stand apart in the source; their conditions may differ. Read-outs that look alike come from different tables or passages of the source.

How the values were obtained:
[1] = test system: marine enrichment cultures; assay: Inhibition of sulfide production (Cline assay) in marine enrichment cultures; type: cell-based; conditions: for IC50: read-out: IC50 Seawater Sulfide Production
[2] = test system: nitrate reducing bacteria; conditions: molybdate treated cell suspensions; cited from earlier work
[3] = test system: Desulfovibrio cell suspensions; conditions: molybdate treated, after 60 minutes; cited from earlier work
[4] = test system: marine enrichment cultures; assay: organism not typed; type: cell-based; conditions: read-out: IC50 Seawater Growth
[5] = marine enrichment cultures, SI>2 classified as selective

Compound	selectivity and potency as inhibitor of sulfidogenesis versus growth, in words [1]	other results
phosphite	weak inhibitors and nonselective; also recorded: very weak, nonselective inhibitors of sulfidogenesis	
[O]=[W](=[O])([O-])[O-] [tungstate]	specific inhibitors of sulfide production	selectivity index (SI = growth IC50/sulfide IC50) [1]: 589
O=NO [nitrite]	selective inhibitors	selectivity index (SI = growth IC50/sulfide IC50) [1]: ≈ 2
[O]=[V]([O-])([O-])[O-] [vanadate]	specific inhibitors of sulfide production	
[O-][Cl+2]([O-])O [chlorate]	selective inhibitors of sulfidogenesis	
[O-][I+3]([O-])([O-])O [periodate]		selectivity and potency as inhibitor of sulfidogenesis versus growth, in words [1, 5]: nonspecific, but potent inhibitors of all growth
methanesulfonate	very weak and nonspecific inhibitors	
CS(C)(=O)=O [dimethyl sulfone]		selectivity and potency as inhibitor of sulfidogenesis versus growth, in words [1, 5]: very weak and nonspecific inhibitors
O=[Te](O)O [tellurite]	very potent and selective inhibitors of sulfate reduction	
[O]=[Mo](=[O])([O-])[O-] [molybdate]	specific inhibitors of sulfide production	intracellular ATP relative to controls [2]: ~80%; selectivity index (SI = growth IC50/sulfide IC50) [1]: 100; intracellular ATP relative to controls [3]: ~10%
O=[N+]([O-])O [nitrate]	selective inhibitors	Growth/Sulfide Ratio [1]: 41.3; fold higher IC50 than MFP [1]: ~8 fold; IC50 [1]: 6.34 mM
O=[Se](=O)(O)O [selenate]	very potent and selective inhibitors of sulfate reduction	
arsenate	not selective	
[O-][Cl+3]([O-])([O-])O [perchlorate]	selective inhibitors of sulfidogenesis	IC50 [4]: 36.3 mM; Growth/Sulfide Ratio [1]: 11.19; IC50 [1]: 3.25 mM
N.NS(=O)(=O)O [ammonium sulfamate]	very weak and nonspecific inhibitors	
OP(O)(O)=S [thiophosphate]	weak inhibitors and nonselective; also recorded: very weak, nonselective inhibitors of sulfidogenesis	
O=[Se](O)O [selenite]	very potent and selective inhibitors of sulfate reduction	
O=S(O)O [sulfite]	only inhibited growth and sulfidogenesis at high millimolar concentrations	
O=S(=O)(O)O [sulfate]	only inhibited growth and sulfidogenesis at high millimolar concentrations	
O=[Te](=O)(O)O [tellurate]	very potent and selective inhibitors of sulfate reduction	
